# According to ChEMBL document CHEMBL2021891, “STAT-3 inhibitory bisabolanes from Carthamus glaucus” (J Nat Prod, 2012):
# Experiments:
# [1] = target: Signal transducer and activator of transcription 3 (Homo sapiens, UniProt P40763); assay: Inhibition of IFNgamma-induced STAT3 activation in human HeLa cells expressing p4xM67-tk-Luc treated 30 mins before […] challenge measured after 6 hrs; assay type: cell-based
# [2] = Inhibition of TNFalpha-induced NF-kappaB activation in human HIV-1-LTR-luc 5.1 cells treated 30 mins before TNFalpha challenge measured after 6 hrs
# Chain of Signal transducer and activator of transcription 3 (P40763 whole entry): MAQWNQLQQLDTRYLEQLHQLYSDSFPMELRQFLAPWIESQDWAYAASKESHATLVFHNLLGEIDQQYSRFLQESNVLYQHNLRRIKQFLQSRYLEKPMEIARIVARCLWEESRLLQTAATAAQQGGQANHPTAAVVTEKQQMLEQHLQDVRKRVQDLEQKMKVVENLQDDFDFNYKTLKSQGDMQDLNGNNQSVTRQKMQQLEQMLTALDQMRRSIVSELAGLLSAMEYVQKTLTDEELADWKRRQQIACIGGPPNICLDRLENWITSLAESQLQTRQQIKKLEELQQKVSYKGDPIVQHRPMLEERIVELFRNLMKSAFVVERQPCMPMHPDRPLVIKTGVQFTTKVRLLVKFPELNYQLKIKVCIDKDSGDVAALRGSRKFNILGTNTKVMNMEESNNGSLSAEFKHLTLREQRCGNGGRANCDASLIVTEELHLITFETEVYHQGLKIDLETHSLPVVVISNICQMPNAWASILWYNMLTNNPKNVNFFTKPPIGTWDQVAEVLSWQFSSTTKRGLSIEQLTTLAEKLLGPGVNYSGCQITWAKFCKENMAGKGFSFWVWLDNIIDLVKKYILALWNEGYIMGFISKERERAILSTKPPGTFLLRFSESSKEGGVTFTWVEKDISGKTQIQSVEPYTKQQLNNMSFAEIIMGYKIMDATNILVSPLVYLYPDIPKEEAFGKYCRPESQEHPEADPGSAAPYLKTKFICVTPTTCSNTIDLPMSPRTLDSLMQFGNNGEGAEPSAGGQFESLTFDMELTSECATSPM
SMILES,IC50 [1] [µM],IC50 [2] [µM]
CC(C)=CCC[C@](C)(O)[C@@H]1CC=C(C)CC1 (relative stereo) [LEVOMENOL],73,> 220
CC(C)=CCC[C@](C)(O[C@@H]1O[C@H](C)[C@H](O)[C@H](OC(=O)C=C(C)C)[C@H]1O)[C@@H]1CC=C(C)CC1 (relative stereo),110,60
CC(C)=CCC[C@](C)(O[C@@H]1O[C@H](C)[C@H](O)[C@H](O)[C@H]1O)[C@@H]1CC=C(C)CC1 (relative stereo),6.3,110
